{"source": "patent US4446148A", "about": "“Benzodioxanyl imidazoline compounds, compositions and use” (priority 1982, dated 1984)", "key": {"[1]": {"tested_on": "presynaptic α2-adrenoreceptors", "test": "Presynaptic α2-adrenoreceptor antagonism in the pithed rat: reversal of clonidine block on vas deferens, intravenous", "format": "in vivo", "details": "for i.v. dose of antagonist causing 50% reversal of clonidine block on vas deferens: cumulative i.v. dosing, clonidine 100 μg/kg i.v., mean of minimum 4 rats", "procedure": "This test model extends the evaluation of presynaptic α2 -adrenoreceptor antagonism versus clonidine on the rat vas deferens to the in vivo situation. Blood pressure and stimulation induced contractions of the vas deferens were monitored in pithed rats using the method of Brown, J., Doxey, J. C., Handley, S. and Virdee, N., Recent Advances in the Pharmacology of Adrenoceptors, Elsevier North Holland, 1978. Clonidine (100 μg/kg. i.v.) causes a prolonged pressor response and a prolonged inhibition of vas deferens contractions. The test drugs were injected intravenously in a cumulative dosing schedule and their abilities to reverse the inhibition of hypogastric nerve stimulation reflected their presynaptic antagonism.\nThe results are the mean of a minimum of 4 rats."}, "[2]": {"molecular_target": "T1, postsynaptic α1-adrenoreceptor (Rattus norvegicus, UniProt P43140)", "T1 construct": "the rat anococcygeus muscle is used to establish postsynaptic α1 -adrenoreceptor activity; from tissue; host or cells: rat anococcygeus muscle", "T1 sequence (P43140 1-466)": "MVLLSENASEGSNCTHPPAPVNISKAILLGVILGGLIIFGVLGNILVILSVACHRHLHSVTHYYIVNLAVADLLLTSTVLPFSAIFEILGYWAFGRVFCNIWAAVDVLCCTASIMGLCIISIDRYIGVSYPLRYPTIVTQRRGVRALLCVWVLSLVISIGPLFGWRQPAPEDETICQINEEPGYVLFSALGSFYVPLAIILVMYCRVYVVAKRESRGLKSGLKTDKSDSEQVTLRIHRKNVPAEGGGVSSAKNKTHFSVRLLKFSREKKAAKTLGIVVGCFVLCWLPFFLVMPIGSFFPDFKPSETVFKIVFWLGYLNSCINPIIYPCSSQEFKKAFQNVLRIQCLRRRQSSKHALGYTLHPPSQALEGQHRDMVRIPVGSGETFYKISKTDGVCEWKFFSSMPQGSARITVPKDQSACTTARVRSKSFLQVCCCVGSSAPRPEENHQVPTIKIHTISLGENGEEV", "test": "Postsynaptic α1-adrenoreceptor antagonism versus noradrenaline contractions of the rat anococcygeus muscle (isolated tissue)", "text": "(§1) This in vitro model is particularly useful as an initial screen for studying presynaptic activity in isolation since the physiological nature of the vas deferens tissue is such that the postsynaptic receptors located therein are particularly inaccessible to exogenous agents. In consequence an alternative tissue, the rat anococcygeus muscle is used to establish postsynaptic α1 -adrenoreceptor activity. Antagonism of noradrenaline contractions is used to determine pA2 values at postsynaptic α1 -adrenoreceptors. The ratio of presynaptic α2 -adrenoreceptor antagonism (versus clonidine on the rat vas deferens) to postsynaptic α1 -adrenoreceptor antagonism (versus noradrenaline contractions on the rat anococcygeus muscle) is used to assess adrenoreceptor selectivity.\n(§2) The results are the mean of a minimum of 5 experiments."}, "[3]": {"molecular_target": "T2, presynaptic α2-adrenoreceptor (Rattus norvegicus, UniProt P22909)", "T2 construct": "on the rat vas deferens stimulated at a frequency of 0.1 Hz; from tissue; host or cells: rat vas deferens", "T2 sequence (P22909 1-465)": "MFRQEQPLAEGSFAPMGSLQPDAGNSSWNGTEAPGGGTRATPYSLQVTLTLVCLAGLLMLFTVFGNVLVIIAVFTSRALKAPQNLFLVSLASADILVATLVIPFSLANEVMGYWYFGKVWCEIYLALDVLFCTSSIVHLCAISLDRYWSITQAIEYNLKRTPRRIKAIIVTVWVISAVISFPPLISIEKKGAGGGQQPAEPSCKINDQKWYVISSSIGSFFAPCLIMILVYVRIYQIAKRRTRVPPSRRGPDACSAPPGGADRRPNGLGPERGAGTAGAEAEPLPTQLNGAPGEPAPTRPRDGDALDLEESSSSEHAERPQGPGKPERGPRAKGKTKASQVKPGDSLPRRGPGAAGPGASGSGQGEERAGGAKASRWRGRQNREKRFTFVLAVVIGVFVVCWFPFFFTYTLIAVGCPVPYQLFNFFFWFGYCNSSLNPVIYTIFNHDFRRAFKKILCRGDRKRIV", "test": "Presynaptic α2-adrenoreceptor antagonism versus clonidine on the stimulated rat vas deferens (isolated tissue)", "details": "for Pre/postsynaptic ratio: presynaptic α2 (vs clonidine, vas deferens) to postsynaptic α1 (vs noradrenaline, anococcygeus) antagonism", "text": "as §1, §2"}, "[4]": {"molecular_target": "T3, α2-binding sites (Rattus norvegicus, UniProt P22909)", "T3 construct": "A crude synaptosomal P2 fraction was prepared; from tissue; host or cells: cerebral cortex including hippocampus, male Sprague-Dawley rats, crude synaptosomal P2 fraction", "T3 sequence (P22909 1-465)": "T2 sequence (P22909 1-465)", "test": "Radioligand competition binding at α2-binding sites labelled by [^3 H]-RX781094 in rat cerebral cortex", "details": "for activity of the enantiomers (in words): from Table 4 / testing results; for Ki: α2 Ki vs [^3 H]-RX 781094, rat cerebral cortex, 1 nM radioligand, 15 min, 25° C.", "text": "The pharmacological activity of the racemic compound (RS) of Example 1 (in formula I R^1 =methyl) has been compared with the activities of the R and S enantiomers.\nMale Sprague-Dawley rats, 250-300 g, were killed by decapitation, the brains quickly removed and the cerebral cortex dissected free from striatal tissue but including the hippocampus. Tissue was homogenized in ice-cold buffered sucrose (20 vols w/v 0.3 M sucrose in Tris/HCl buffer, 0.05 M, pH 7.4) using a Potter-type glass-teflon homogenizer. A crude synaptosomal P2 fraction was prepared and the washed P2 -pellet was resuspended in a physiological salt solution to give a final protein concentration of about 1 mg/ml. The physiological salt solution had the following composition ([…]): 118 NaCl, 4.8 KCl, 1.3 CaCl2, 1.2 […], 1.2 MgSO4, 25 NaHCO3 and was equilibrated with 95% O2 and 5% CO2.\nSamples were incubated for 15 min at 25° C. and then rapidly filtered under vacuum through Whatman GFB filters and washed. Filters were transferred to scintillation vials and NE 260 miscellar scintillation fluid (3.5 ml) was added prior to scintillation counting (at 40% efficiency). Competition binding curves including up to eight concentrations of test antagonist were constructed and IC50 values determined. Hill plots made from each set of data were linear with Hill coefficients (nh) […] to 1.0 and inhibitor constants (Ki values) were derived from IC50 values."}, "[5]": {"molecular_target": "T3, α2-binding sites", "test": "Saturation binding of [^3 H]-RX 781094 in rat cerebral cortex, Scatchard analysis", "details": "0.1-35 nM radioligand, n=4", "procedure": "Male Sprague-Dawley rats, 250-300 g, were killed by decapitation, the brains quickly removed and the cerebral cortex dissected free from striatal tissue but including the hippocampus. Tissue was homogenized in ice-cold buffered sucrose (20 vols w/v 0.3 M sucrose in Tris/HCl buffer, 0.05 M, pH 7.4) using a Potter-type glass-teflon homogenizer. A crude synaptosomal P2 fraction was prepared and the washed P2 -pellet was resuspended in a physiological salt solution to give a final protein concentration of about 1 mg/ml."}}, "note": "“Also recorded” adds a separate entry of the source. Structures can show the parent of a compound that is named as a salt. Where two headings read alike, the source gives them in different places."}
{"smiles": "CN1CCN2c3ccccc3Cc3ccccc3C2C1", "note": "(stereo not shown) [Mianserin]", "values": [{"measurement": "maximum reversal of the inhibitory effects of clonidine on hypogastric nerve stimulation", "setting": "[1]; pithed rat, cumulative intravenous dose of 4.4 mg/kg", "result": 36, "unit": "%"}]}
{"smiles": "c1ccc2c(c1)OCC(C1=NCCN1)O2", "note": "(stereo not shown) [A, 2-[2-(1,4-benzodioxanyl)]-2-imidazoline, reference compound]", "values": [{"measurement": "Kb", "setting": "[2]", "result": 631, "unit": "nM"}]}
{"smiles": "CC1(C2=NCCN2)COc2ccccc2O1", "note": "(stereo not shown) [B, 2-[2-(2-methyl-1,4-benzodioxanyl)]-2-imidazoline, reference compound]", "values": [{"measurement": "Pre/postsynaptic ratio", "setting": "[3]", "result": 871}]}
{"smiles": "COC1(C2=NCCN2)COc2ccccc2O1", "note": "(single isomer, unassigned) [S, 2-[2-(2-methoxy-1,4-benzodioxanyl)]-2-imidazoline]", "values": [{"measurement": "potency of the S isomer relative to the racemate (in words)", "setting": "[4]; from Table 4", "result": "twice as potent as the racemate"}, {"measurement": "activity of the enantiomers (in words)", "setting": "[4]; listed as (+) enantiomer", "result": "all the activity resided in the (+) enantiomer"}, {"measurement": "activity of the enantiomers (in words)", "setting": "[4]; listed as S isomer", "result": "the active form"}, {"measurement": "Ki", "setting": "[4]", "result": "0.36 ± 0.07", "unit": "nM"}]}
{"smiles": "COC1(C2=NCCN2)COc2ccccc2O1", "note": "(single isomer, unassigned; (-)) [R, (-)-2-[2-(2-methoxy-1,4-benzodioxanyl)]-2-imidazoline]", "values": [{"measurement": "activity of the enantiomers (in words)", "setting": "[4]; listed as R isomer", "result": "almost inactive"}, {"measurement": "Ki", "setting": "[4]", "result": "256 ± 59", "unit": "nM"}]}
{"smiles": "CN1CCN2c3ccccc3Cc3ccccc3C2C1", "note": "(stereo not shown) [Mianserin HCl]", "values": [{"measurement": "i.v. dose of antagonist causing 50% reversal of clonidine block on vas deferens", "setting": "[1]; pithed rat", "result": "> 4.4", "unit": "mg/kg"}]}
{"smiles": "c1ccc2c(c1)OCC(C1=NCCN1)O2", "note": "(stereo not shown) [[^3 H]-RX 781094, 2-[2-(1,4-benzodioxanyl)]-2-imidazoline]", "values": [{"measurement": "Bmax", "setting": "[5]", "result": "147±36", "unit": "f moles/mg protein"}]}
{"smiles": "Cc1ccc(N(CC2=NCCN2)c2cccc(O)c2)cc1", "note": "[Phentolamine mesylate]", "values": [{"measurement": "i.v. dose of antagonist causing 50% reversal of clonidine block on vas deferens", "setting": "[1]; pithed rat", "result": 0.12, "unit": "mg/kg"}]}
{"smiles": "COC(=O)[C@@H]1[C@H]2C[C@H]3c4[nH]c5ccccc5c4CCN3C[C@@H]2CC[C@@H]1O", "note": "[Yohimbine HCl]", "values": [{"measurement": "i.v. dose of antagonist causing 50% reversal of clonidine block on vas deferens", "setting": "[1]; pithed rat", "result": 0.86, "unit": "mg/kg"}]}
{"smiles": "COC1(C2=NCCN2)COc2ccccc2O1", "note": "(racemic) [Example 1, 2-[2-(2-Methoxy-1,4-benzodioxanyl)]-2-imidazoline]", "values": [{"measurement": "Kb", "setting": "[2]; rat anococcygeus muscle, vs noradrenaline, mean of minimum 5 experiments, read-out: Postsynaptic antagonism pA2 vs Noradrenaline (anococcygeus) (converted)", "result": 63.1, "unit": "nM"}, {"measurement": "Ki", "setting": "[4]", "result": "0.8 ± 0.05", "unit": "nM"}, {"measurement": "presynaptic α2 antagonist potency in the pithed rat (in words)", "setting": "[1]; compounds of Table 3", "result": "clearly the most potent presynaptic α2 -adrenoreceptor antagonist"}, {"measurement": "i.v. dose of antagonist causing 50% reversal of clonidine block on vas deferens", "setting": "[1]; pithed rat", "result": 0.002, "unit": "mg/kg"}, {"measurement": "presynaptic α2 antagonist activity relative to the unsubstituted compound (A)", "setting": "[3]; Table 2, relative to compound A", "result": "~10", "unit": "times"}, {"measurement": "presynaptic α2 antagonist activity relative to the 2-methyl compound (B)", "setting": "[3]; Table 2, relative to compound B", "result": 10, "unit": "times"}, {"measurement": "presynaptic α2-adrenoreceptor antagonist potency and selectivity (in words)", "setting": "[3]; compounds of Table 2", "result": "most potent presynaptic α2 -adrenoreceptor antagonist; also recorded: extremely selective for presynaptic sites"}, {"measurement": "Pre/postsynaptic ratio", "setting": "[3]", "result": 776}, {"measurement": "Kb", "setting": "[3]; rat vas deferens, 0.1 Hz stimulation, vs clonidine, mean of minimum 5 experiments, read-out: Presynaptic antagonism pA2 vs Clonidine (vas deferens) (converted)", "result": 0.0794, "unit": "nM"}]}
